# Assay results taken from patent US9527807B2, “Sulfonamide derivative and use thereof” (Takeda Pharmaceutical Company Limited, priority 2011, dated 2016).
# Counter-ions that a name gives are not always drawn.
# Molecular target: T1, AMPA receptor (human GluR1 flip/stargazin expressed in CHO-K1 cells) (Homo sapiens, UniProt P42261)
# T1 construct: expressed in transfected cells; host or cells: CHO-K1
# Assay: AMPA receptor function enhancing activity using calcium influx as index
# Assay type: cell-based
# Details: change in fluorescence level in 3 min, 100% = 3 mM glutamic acid + 300 μM cyclothiazide, 0% = 3 mM glutamic acid only
# Method in brief: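 CHO-K1 cells co-expressing human GluR1 flip and stargazin, Calcium 4 dye with 1.25 mM probenecid; compound added with glutamate (3 mM final), fluorescence change over 3 min. Activity (%) scaled between 3 mM glutamate alone (0%) and glutamate plus 300 μM cyclothiazide (100%).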
# T1 sequence (P42261 19-906 isoform P42261-2 limits assumed): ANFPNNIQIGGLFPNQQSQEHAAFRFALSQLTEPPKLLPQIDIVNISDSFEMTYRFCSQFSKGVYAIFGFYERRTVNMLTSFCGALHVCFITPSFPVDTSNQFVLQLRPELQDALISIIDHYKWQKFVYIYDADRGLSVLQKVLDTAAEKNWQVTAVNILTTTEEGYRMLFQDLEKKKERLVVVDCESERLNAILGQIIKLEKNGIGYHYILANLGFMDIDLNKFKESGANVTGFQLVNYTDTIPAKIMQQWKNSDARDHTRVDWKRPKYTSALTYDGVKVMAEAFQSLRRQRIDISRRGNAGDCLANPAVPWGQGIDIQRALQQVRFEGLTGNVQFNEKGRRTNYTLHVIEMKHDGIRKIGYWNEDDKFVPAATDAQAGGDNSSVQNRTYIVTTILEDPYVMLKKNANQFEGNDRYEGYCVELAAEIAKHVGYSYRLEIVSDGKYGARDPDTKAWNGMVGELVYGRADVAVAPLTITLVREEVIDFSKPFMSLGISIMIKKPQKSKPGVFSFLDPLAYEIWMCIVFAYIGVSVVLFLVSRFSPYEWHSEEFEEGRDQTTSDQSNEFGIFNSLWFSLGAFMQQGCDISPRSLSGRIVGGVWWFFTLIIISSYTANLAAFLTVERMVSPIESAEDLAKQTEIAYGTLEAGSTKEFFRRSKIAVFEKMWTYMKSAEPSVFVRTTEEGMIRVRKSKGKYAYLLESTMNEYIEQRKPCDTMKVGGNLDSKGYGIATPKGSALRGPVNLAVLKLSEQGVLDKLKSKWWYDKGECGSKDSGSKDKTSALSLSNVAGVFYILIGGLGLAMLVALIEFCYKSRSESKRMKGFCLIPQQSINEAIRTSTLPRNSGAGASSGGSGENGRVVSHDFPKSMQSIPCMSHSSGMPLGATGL
# T1 sequence (Q9Y698 whole entry partner): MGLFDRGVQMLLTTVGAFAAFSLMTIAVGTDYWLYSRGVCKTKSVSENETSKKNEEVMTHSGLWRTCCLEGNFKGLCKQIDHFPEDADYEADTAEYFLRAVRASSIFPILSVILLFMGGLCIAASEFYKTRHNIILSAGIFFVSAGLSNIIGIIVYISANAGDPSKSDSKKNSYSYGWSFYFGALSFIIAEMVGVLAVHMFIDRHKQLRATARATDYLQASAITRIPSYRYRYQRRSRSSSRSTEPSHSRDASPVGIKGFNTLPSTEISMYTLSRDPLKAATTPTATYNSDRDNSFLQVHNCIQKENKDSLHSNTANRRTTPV
row,SMILES,activity (%)
1,"CCS(=O)(=O)N[C@H]1CCCC[C@@H]1COc1ccc(C2COC2)cc1 (relative stereo) [Example 43, trans-N-{2-[(4-oxetan-3-ylphenoxy)methyl]cyclohexyl}ethanesulfonamide]",86
2,"CCS(=O)(=O)N[C@H]1CCOC[C@@H]1COc1ccc(-c2cccnc2C)cc1 (racemic) [Example 322, N-[(3RS,4SR)-3-{[4-(2-methylpyridin-3-yl)phenoxy]methyl}tetrahydro-2H-pyran-4-yl]ethanesulfonamide]",91
3,"CS(=O)(=O)N[C@H]1COCC[C@@H]1COc1ccc(-c2ccc(Cl)cn2)cc1 [Example 205, N-[(3R,4S)-4-{[4-(5-chloropyridin-2-yl)phenoxy]methyl}tetrahydro-2H-pyran-3-yl]methanesulfonamide]",65
4,"Cc1cnn(-c2ccc(OC[C@H]3COCC[C@@H]3NS(=O)(=O)C(F)(F)F)cc2)c1 (racemic) [Example 280, 1,1,1-trifluoro-N-[(3RS,4SR)-3-{[4-(4-methyl-1H-pyrazol-1-yl)phenoxy]methyl}tetrahydro-2H-pyran-4-yl]methanesulfonamide]",108
5,"CS(=O)(=O)N[C@H]1CCOC[C@@H]1COc1ccc(-n2cccn2)c(F)c1F [Example 425, N-[(3R,4S)-3-{[2,3-difluoro-4-(1H-pyrazol-1-yl)phenoxy]methyl}tetrahydro-2H-pyran-4-yl]methanesulfonamide hydrochloride]",96
6,"CS(=O)(=O)N[C@H]1CCOC[C@@H]1COc1ccc(-n2cc(Cl)cn2)cc1 [Example 269, N-[(3R,4S)-3-{[4-(4-chloro-1H-pyrazol-1-yl)phenoxy]methyl}tetrahydro-2H-pyran-4-yl]methanesulfonamide]",93
7,"CCS(=O)(=O)N[C@H]1CCC(F)(F)C[C@@H]1COc1ccc(-n2cc(C)cn2)cc1 (relative stereo) [Example 141, trans-N-[4,4-difluoro-2-{[4-(4-methyl-1H-pyrazol-1-yl)phenoxy]methyl}cyclohexyl]ethanesulfonamide]",78
8,"CCS(=O)(=O)N[C@H]1CCCC[C@@H]1COc1ccc(OC(F)F)cc1 (relative stereo) [Example 52, trans-N-[2-{[4-(difluoromethoxy)phenoxy]methyl}cyclo-hexyl]ethanesulfonamide]",69
9,"CS(=O)(=O)N[C@@H]1CCOC[C@H]1COc1ccc(-c2ccc(Cl)cn2)cc1F (single isomer, unassigned) [Example 266, N-[(3S,4R)-3-{[4-(5-chloropyridin-2-yl)-2-fluorophenoxy]methyl}tetrahydro-2H-pyran-4-yl]methanesulfonamide or N-[(3R,4S)-3-{[4-(5-chloropyridin-2-yl)-2-fluorophenoxy]methyl}tetrahydro-2H-pyran-4-yl]methanesulfonamide]",92
10,"O=S(=O)(N[C@H]1CCOC[C@@H]1COc1ccc(-c2ncc(Cl)s2)cc1)C1CC1 [Example 312, N-[(3R,4S)-3-{[4-(5-chloro-1,3-thiazol-2-yl)phenoxy]methyl}tetrahydro-2H-pyran-4-yl]cyclopropanesulfonamide]",91
11,"CC(C)S(=O)(=O)N[C@H]1CCCC[C@@H]1COc1ccc(C2CC2)cc1 (relative stereo) [Example 21, trans-N-{2-[(4-cyclopropylphenoxy)methyl]cyclohexyl}propane-2-sulfonamide]",82
12,"CCS(=O)(=O)N[C@H]1CCOC[C@@H]1COc1ccc(-n2cc(Cl)cn2)c(F)c1 (racemic) [Example 489, N-[(3RS,4SR)-3-{[4-(4-chloro-1H-pyrazol-1-yl)-3-fluorophenoxy]methyl}tetrahydro-2H-pyran-4-yl]ethanesulfonamide]",99
13,"CS(=O)(=O)N[C@H]1COCC[C@@H]1COc1ccc(-n2cc(Cl)cn2)cc1 [Example 206, N-[(3R,4S)-4-{[4-(4-chloro-1H-pyrazol-1-yl)phenoxy]methyl}tetrahydro-2H-pyran-3-yl]methanesulfonamide]",74
14,"CCS(=O)(=O)N[C@H]1CCOC[C@@H]1COc1ccc(-c2ccc(C#N)cn2)cc1 [Example 297, N-[(3R,4S)-3-{[4-(5-cyanopyridin-2-yl)phenoxy]methyl}tetrahydro-2H-pyran-4-yl]ethanesulfonamide]",95
15,"CCS(=O)(=O)N[C@H]1CCC(F)(F)C[C@@H]1COc1ccc(-c2ncc(C#N)cc2F)cc1 [Example 222, N-[(1S,2S)-2-{[4-(5-cyano-3-fluoropyridin-2-yl)phenoxy]methyl}-4,4-difluorocyclohexyl]ethanesulfonamide]",89
16,"CCS(=O)(=O)N[C@H]1CCOC[C@@H]1COc1ccc(-n2cnc(C)c2)cc1 (relative stereo) [Example 139, trans-N-[3-{[4-(4-methyl-1H-imidazol-1-yl)phenoxy]methyl}tetrahydro-2H-pyran-4-yl]ethanesulfonamide]",97

row,SMILES,activity (%)
1,"CCS(=O)(=O)N[C@H]1CCCC[C@@H]1COc1ccc(C(C)=O)cc1 (relative stereo) [Example 89, trans-N-{2-[(4-acetylphenoxy)methyl]cyclohexyl}ethane-sulfonamide]",75
2,"CCS(=O)(=O)N[C@H]1CCOC[C@@H]1COc1ccc(C(C)=O)cc1F (relative stereo) [Example 136, trans-N-{3-[(4-acetyl-2-fluorophenoxy)methyl]tetrahydro-2H-pyran-4-yl}ethanesulfonamide]",85
3,"CCS(=O)(=O)N[C@H]1CCOC[C@@H]1COc1ccc(-n2cc(C)cn2)cc1 (relative stereo) [Example 134, trans-N-[3-{[4-(4-methyl-1H-pyrazol-1-yl)phenoxy]methyl}tetrahydro-2H-pyran-4-yl]ethanesulfonamide]",92
4,"CCS(=O)(=O)N[C@H]1CCOC[C@@H]1COc1ccc(-n2cc(Cl)cn2)cc1F [Example 454, N-[(3R,4S)-3-{[4-(4-chloro-1H-pyrazol-1-yl)-2-fluorophenoxy]methyl}tetrahydro-2H-pyran-4-yl]ethanesulfonamide]",89
5,"CS(=O)(=O)N[C@H]1CCOC[C@@H]1COc1ccc(-c2ccc(Cl)cn2)c(F)c1 (racemic) [Example 244, N-[(3RS,4SR)-3-{[4-(5-chloropyridin-2-yl)-3-fluorophenoxy]methyl}tetrahydro-2H-pyran-4-yl]methanesulfonamide]",96
6,"Cc1cc(-c2ccc(OC[C@H]3COCC[C@@H]3NS(C)(=O)=O)cc2F)no1 [Example 247, N-[(3R,4S)-3-{[3-fluoro-4-(5-methylisoxazol-3-yl)phenoxy]methyl}tetrahydro-2H-pyran-4-yl]methanesulfonamide]",87
7,"CS(=O)(=O)N[C@H]1COCC[C@@H]1COc1ccc(-c2ncc(F)cn2)cc1 [Example 283, N-[(3R,4S)-4-{[4-(5-fluoropyrimidin-2-yl)phenoxy]methyl}tetrahydro-2H-pyran-3-yl]methanesulfonamide]",98
8,"CS(=O)(=O)N[C@H]1C[C@H]2CC[C@H](O2)[C@@H]1COc1ccc(-c2ccc(C#N)cn2)cc1 (mixture of isomers) [Example 508, N-((1S,2SR,3SR,5R)-2-((4-(5-cyanopyridin-2-yl)phenoxy)methyl)-8-oxabicyclo[3.2.1]oct-3-yl)methanesulfonamide]",38
9,"CCS(=O)(=O)N[C@H]1CCCC[C@@H]1COc1ccc(C(C)C)cc1 (relative stereo) [Example 8, trans-N-[2-{[4-(1-methylethyl)phenoxy]methyl}cyclohexyl]ethanesulfonamide]",79
10,"CCS(=O)(=O)N[C@H]1CCC(F)(F)C[C@@H]1COc1ccc(-n2ccc(C)n2)cc1 (relative stereo) [Example 142, trans-N-[4,4-difluoro-2-{[4-(3-methyl-1H-pyrazol-1-yl)phenoxy]methyl}cyclohexyl]ethanesulfonamide]",54
11,"Cn1cccc(-c2ccc(OC[C@H]3CSCC[C@@H]3NS(C)(=O)=O)cc2)c1=O [Example 518, N-((3S,4S)-3-((4-(1-methyl-2-oxo-1,2-dihydropyridin-3-yl)phenoxy)methyl)tetrahydro-2H-thiopyran-4-yl)methanesulfonamide]",95
12,"CCS(=O)(=O)N[C@H]1CCN(C(C)=O)C[C@@H]1COc1ccc(CCC#N)cc1 (relative stereo) [Example 2, trans-N-[1-acetyl-3-{[4-(2-cyanoethyl)phenoxy]methyl}piperidin-4-yl]ethanesulfonamide]",38
13,"CCS(=O)(=O)N[C@H]1CCC(F)(F)C[C@@H]1COc1ccc(-n2nccc2C)cc1 (relative stereo) [Example 143, trans-N-[4,4-difluoro-2-{[4-(5-methyl-1H-pyrazol-1-yl)phenoxy]methyl}cyclohexyl]ethanesulfonamide]",42
14,"CS(=O)(=O)N[C@H]1CCC(F)(F)C[C@@H]1COc1ccc(-c2ccc(C#N)cn2)cc1 (racemic) [Example 260, N-[(1SR,2SR)-2-{[4-(5-cyanopyridin-2-yl)phenoxy]methyl}-4,4-difluorocyclohexyl]methanesulfonamide]",82
15,"CCS(=O)(=O)N[C@H]1CCN(C(C)=O)C[C@@H]1COc1ccc(C(C)C)cc1 (single isomer, unassigned) [Example 94, trans-N-[1-acetyl-3-{[4-(1-methylethyl)phenoxy]methyl}piperidin-4-yl]ethanesulfonamide]",70
